Source: patent publication US20170152239A1, “BENZAMIDE AND HETEROBENZAMIDE COMPOUNDS” (PFIZER INC., priority 2012, published 2017)

What follows are compounds tested against WT EZH2 (EZH2 4 protein complex: EZH2, EED, SUZ12, RbAp48) (Homo sapiens, UniProt O75530+Q09028+Q15022+Q15910) (assay: WT EZH2 nucleosome assay). Conditions: nucleosome assay, 5 nM EZH2 4-protein complex, 1.5 μM SAM; read-out: WT EZH2 IC50.
Format: biochemical
Procedure: Nucleosome Assay Protocol:
A. Compound preparation • 1. Prepare 10 mM stock solutions in 100% DMSO from solid material • 2. Serial dilute 10 mM compound stocks either 2 or 3-fold in 100% DMSO to generate compounds for 11 point dose response
B. Reagent preparation • 1. Prepare 1× assay buffer containing 100 mM Tris pH 8.5, 4 mM DTT and 0.01% Tween-20 • 2. Dilute purified HeLA oligonucleosomes and recombinant histone H1 (New England Biolabs) in assay buffer to 1.67×. • 3. Dilute EZH2 4 protein complex (EZH2, EED, SUZ12, RbAp48) to 3.5× in assay buffer • 4. Prepare 10×^3H SAM solution in assay buffer using 0.94 μCi/well of radioactive SAM (Perkin Elmer) and sufficient non-labeled SAM (Sigma) for 1.5 μM final concentration. • 5. Dilute TCA to 20% in DI water
C. Enzyme reaction • 1. Final reaction conditions are 5 nM EZH2 4-protein complex, 1.5 μM SAM, 25 μg/mL oligonucleosomes, 50 nM rH1 in a 50 μl reaction volume. • 2. Add 1 μl of diluted compound to the assay plate (96-well V-bottom polypropylene plates) or 1 μl of DMSO for control wells. • 3. Add 30 μl of nucleosomes to the assay plate • 4. Add 14 μl of EZH2 4 protein complex to the assay plate • 5. Add 5 μl of ^3H SAM to start the reaction. • 6. Stop the reaction after 60 minutes with the addition of 100 μl of 20% TCA • 7. Transfer 150 μl of quenched reaction into a prepared filterplate (Millipore #MSIPN4B10) • 8. Apply vacuum to the filterplate to filter the reaction mix through the membrane. • 9. Wash the filterplate with 8×200 μl of PBS, blot dry and dry in an oven for 30 minutes • 10. Add 50 μl of microscint-20 scintillation fluid (Perkin Elmer) to each well, wait 30 minutes and count on a liquid scintillation counter.
D. Data analysis • 1. IC50 values were determined by fitting the data to a 4-parameter IC50 equation using proprietary curve fitting software.
Wild type (WT) EZH2% Effect at 20 μM and IC50 values (μM) generated in WT EZH2 or EZH2PRC2 mutant Y641N nucleosome assays are provided in Table 3 below. A blank entry in the table indicates the data was not generated in that assay.

Sequence of WT EZH2 (EZH2 4 protein complex: EZH2, EED, SUZ12, RbAp48) (Q15910 whole entry): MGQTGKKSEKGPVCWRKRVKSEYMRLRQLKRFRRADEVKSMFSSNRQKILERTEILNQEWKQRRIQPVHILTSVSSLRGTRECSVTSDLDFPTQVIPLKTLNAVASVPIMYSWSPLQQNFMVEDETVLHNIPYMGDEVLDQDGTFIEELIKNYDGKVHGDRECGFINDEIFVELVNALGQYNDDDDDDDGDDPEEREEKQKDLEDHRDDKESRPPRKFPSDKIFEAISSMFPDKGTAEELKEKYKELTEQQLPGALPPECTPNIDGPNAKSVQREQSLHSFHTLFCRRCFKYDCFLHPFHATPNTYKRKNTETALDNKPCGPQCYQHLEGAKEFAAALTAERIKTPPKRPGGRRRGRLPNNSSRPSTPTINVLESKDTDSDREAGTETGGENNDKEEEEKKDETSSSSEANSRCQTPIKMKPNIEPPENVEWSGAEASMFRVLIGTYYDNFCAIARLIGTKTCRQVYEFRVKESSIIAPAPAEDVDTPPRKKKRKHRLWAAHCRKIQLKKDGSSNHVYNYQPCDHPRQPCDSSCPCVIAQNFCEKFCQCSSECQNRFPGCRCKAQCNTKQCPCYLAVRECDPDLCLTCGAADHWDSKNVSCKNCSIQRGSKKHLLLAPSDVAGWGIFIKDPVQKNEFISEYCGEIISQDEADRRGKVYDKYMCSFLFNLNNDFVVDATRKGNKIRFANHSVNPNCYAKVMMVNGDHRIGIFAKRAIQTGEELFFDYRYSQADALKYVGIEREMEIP
Sequence of WT EZH2 (EZH2 4 protein complex: EZH2, EED, SUZ12, RbAp48) (O75530 whole entry partner): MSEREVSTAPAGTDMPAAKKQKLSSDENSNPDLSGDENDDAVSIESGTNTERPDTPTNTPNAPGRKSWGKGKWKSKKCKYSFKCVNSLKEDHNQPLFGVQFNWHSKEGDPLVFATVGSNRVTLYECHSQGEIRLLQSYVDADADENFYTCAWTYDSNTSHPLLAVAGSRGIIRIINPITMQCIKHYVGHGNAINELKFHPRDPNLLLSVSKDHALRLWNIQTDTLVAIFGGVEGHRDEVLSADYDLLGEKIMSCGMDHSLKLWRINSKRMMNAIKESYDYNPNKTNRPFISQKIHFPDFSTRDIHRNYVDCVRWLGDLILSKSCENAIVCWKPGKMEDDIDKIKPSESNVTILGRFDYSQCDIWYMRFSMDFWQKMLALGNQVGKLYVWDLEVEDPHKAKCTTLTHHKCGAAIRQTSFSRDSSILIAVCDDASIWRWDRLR
Sequence of WT EZH2 (EZH2 4 protein complex: EZH2, EED, SUZ12, RbAp48) (Q15022 whole entry partner): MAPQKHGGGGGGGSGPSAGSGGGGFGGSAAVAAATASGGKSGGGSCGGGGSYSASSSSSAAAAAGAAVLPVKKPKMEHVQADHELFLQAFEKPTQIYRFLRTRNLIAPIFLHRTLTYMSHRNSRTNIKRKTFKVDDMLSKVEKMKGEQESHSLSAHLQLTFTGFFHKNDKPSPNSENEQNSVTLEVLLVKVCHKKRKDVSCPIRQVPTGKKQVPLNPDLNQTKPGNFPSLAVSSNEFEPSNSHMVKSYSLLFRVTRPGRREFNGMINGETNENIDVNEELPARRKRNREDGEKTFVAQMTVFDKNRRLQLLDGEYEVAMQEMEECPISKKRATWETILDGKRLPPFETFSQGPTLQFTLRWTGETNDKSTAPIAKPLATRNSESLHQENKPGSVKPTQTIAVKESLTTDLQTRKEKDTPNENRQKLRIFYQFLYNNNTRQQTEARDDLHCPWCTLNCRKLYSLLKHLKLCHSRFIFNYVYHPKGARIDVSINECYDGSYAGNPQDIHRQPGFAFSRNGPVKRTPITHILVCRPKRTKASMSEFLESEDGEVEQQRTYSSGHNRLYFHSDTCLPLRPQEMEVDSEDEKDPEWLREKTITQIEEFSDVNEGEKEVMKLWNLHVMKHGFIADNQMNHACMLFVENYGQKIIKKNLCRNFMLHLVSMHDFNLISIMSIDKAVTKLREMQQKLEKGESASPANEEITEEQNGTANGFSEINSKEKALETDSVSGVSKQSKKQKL
Sequence of WT EZH2 (EZH2 4 protein complex: EZH2, EED, SUZ12, RbAp48) (Q09028 whole entry partner): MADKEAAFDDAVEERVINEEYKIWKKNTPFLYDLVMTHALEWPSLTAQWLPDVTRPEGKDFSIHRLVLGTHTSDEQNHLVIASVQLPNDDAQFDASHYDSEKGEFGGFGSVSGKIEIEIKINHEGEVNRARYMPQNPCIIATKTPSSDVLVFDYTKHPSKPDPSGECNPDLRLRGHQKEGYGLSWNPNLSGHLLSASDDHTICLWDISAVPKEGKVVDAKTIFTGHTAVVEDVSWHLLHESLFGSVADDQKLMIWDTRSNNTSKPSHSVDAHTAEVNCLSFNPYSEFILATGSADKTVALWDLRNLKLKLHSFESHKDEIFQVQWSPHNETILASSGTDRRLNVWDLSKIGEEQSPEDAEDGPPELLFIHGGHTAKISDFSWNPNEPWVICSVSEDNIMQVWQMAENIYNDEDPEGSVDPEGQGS

IC50 | SMILES
1.7 µM | CNc1ncc(-c2nc(C(=O)NCc3c(C)cc(C)[nH]c3=O)c(C)c(-c3ccnn3C)n2)cn1 [Example 47, N-[(4,6-dimethyl-2-oxo-1,2-dihydropyridin-3-yl)methyl]-5-methyl-2′-(methylamino)-6-(1-methyl-1H-pyrazol-5-yl)-2,5′-bipyrimidine-4-carboxamide]
1.95 µM | Cc1cc(C)c(CNC(=O)c2cc(Cl)cc(-n3ncnc3C)c2C)c(=O)[nH]1 [Example 49, 5-chloro-N-[(4,6-dimethyl-2-oxo-1,2-dihydropyridin-3-yl)methyl]-2-methyl-3-(5-methyl-1H-1,2,4-triazol-1-yl)benzamide]
2.11 µM | Cc1cc(C)c(CNC(=O)c2nc(-c3cnc(N(C)C)nc3)nc(-c3ccnn3C)c2C)c(=O)[nH]1 [Example 51, 2′-(dimethylamino)-N-[(4,6-dimethyl-2-oxo-1,2-dihydropyridin-3-yl)methyl]-5-methyl-6-(1-methyl-1H-pyrazol-5-yl)-2 ,5′-bipyrimidine-4-carboxamide]
2.46 µM | Cc1cc(C)c(CNC(=O)c2cc(Cl)cc(-n3nnnc3C)c2C)c(=O)[nH]1 [Example 52, 5-chloro-N-[(4,6-dimethyl-2-oxo-1,2-dihydropyridin-3-yl)methyl]-2-methyl-3-(5-methyl-1H-tetrazol-1-yl)benzamide]
2.52 µM | Cc1cc(C)c(CNC(=O)c2ncnc(N3CCCC3C(F)(F)F)c2C)c(=O)[nH]1 (centres unmarked) [Example 53, N-[(4,6-dimethyl-2-oxo-1,2-dihydropyridin-3-yl)methyl]-5-methyl-6-[2-(trifluoromethyl)pyrrolidin-1-yl]pyrimidine-4-carboxamide]
2.83 µM | Cc1cc(C)c(CNC(=O)c2nc(C3CC3)nc(N3CCC[C@@H]3C)c2C)c(=O)[nH]1 [Example 54, 2-cyclopropyl-N-[(4,6-dimethyl-2-oxo-1,2-dihydropyridin-3-yl)methyl]-5-methyl-6-[(2S)-2-methylpyrrolidin-1-yl]pyrimidine-4-carboxamide]
2.89 µM | Cc1cc(C)c(CNC(=O)c2nc(N3[C@@H]4CC[C@H]3COC4)nc(N3CCC[C@@H]3C)c2C)c(=O)[nH]1 [Example 55, N-[(4,6-dimethyl-2-oxo-1,2-dihydropyridin-3-yl)methyl]-5-methyl-6-[(2S)-2 - methylpyrrolidin-1-yl]-2-[(1R,5S)-3-oxa-8-azabicyclo[3.2.1]oct-8-yl]pyrimidine-4-carboxamide]
3.18 µM | Cc1cc(C)c(CNC(=O)c2nc(N3C[C@@H]4[C@@H](N)[C@@H]4C3)nc(-c3ccnn3C)c2C)c(=O)[nH]1 [Example 56, 2-[(1R,5S,6S)-6-amino-3-azabicyclo[3.1.0]hex-3-yl]-N-[(4,6-dimethyl-2-oxo-1,2-dihydropyridin-3-yl)methyl]-5-methyl-6-(1-methyl-1H-pyrazol-5-yl)pyrimidine-4-carboxamide]
3.2 µM | Cc1cc(C)c(CNC(=O)c2nc(OC(C)C)nc(N3CCC[C@@H]3C)c2C)c(=O)[nH]1 [Example 57, N-[(4,6-dimethyl-2-oxo-1,2-dihydropyridin-3-yl)methyl]-2-isopropoxy-5-methyl-6-[(2S)-2 - methylpyrrolidin-1-yl]pyrimidine-4-carboxamide]
3.52 µM | Cc1cc(C)c(CNC(=O)c2nc(N3C[C@@H]4C[C@H]3CO4)nc(N3CCC[C@@H]3C)c2C)c(=O)[nH]1 [Example 58, N-[(4,6-dimethyl-2-oxo-1,2-dihydropyridin-3-yl)methyl]-5-methyl-6-[(2S)-2 - methylpyrrolidin-1-yl]-2-[(1S,4S)-2-oxa-5-azabicyclo[2.2.1]hept-5-yl]pyrimidine-4-carboxamide]
3.91 µM | Cc1cc(C)c(CNC(=O)c2ncnc(N3CCCC3(C)C)c2C)c(=O)[nH]1 [Example 59, N-[(4,6-dimethyl-2-oxo-1,2-dihydropyridin-3-yl)methyl]-6-(2,2-dimethylpyrroli-din-1-yl)-5-methylpyrimidine-4-carboxamide]
4.21 µM | CCc1nncn1-c1cc(Cl)cc(C(=O)NCc2c(C)cc(C)[nH]c2=O)c1C [Example 61, 5-chloro-N-[(4,6-dimethyl-2-oxo-1,2-dihydropyridin-3-yl)methyl]-3-(3-ethyl-4H-1,2,4-triazol-4-yl)-2-methylbenz-amide]
4.22 µM | Cc1cc(C)c(CNC(=O)c2cc(Cl)cc(-n3c(C)nnc3C)c2C)c(=O)[nH]1 [Example 62, 5-chloro-N-[(4,6-dimethyl-2-oxo-1,2-dihydropyridin-3-yl)methyl]-3-(3,5-dimethyl-4H-1,2,4-triazol-4-yl)-2-methylbenz-amide]
4.38 µM | Cc1cc(C)c(CNC(=O)c2cc(Cl)cc(-n3nccc3C)c2C)c(=O)[nH]1 [Example 63, 5-chloro-N-[(4,6-dimethyl-2-oxo-1,2-dihydropyridin-3-yl)methyl]-2-methyl-3-(5-methyl-1H-pyrazol-1-yl)benzamide]
4.42 µM | Cc1cc(C)c(CNC(=O)c2cccc(-c3c(C)ncnc3C)c2C)c(=O)[nH]1 [Example 64, N-[(4,6-dimethyl-2-oxo-1,2-dihydropyridin-3-yl)methyl]-3-(4,6-dimethylpyrimi-din-5-yl)-2-methylbenz-amide]
5.19 µM | COC1CCN(c2nc(C(=O)NCc3c(C)cc(C)[nH]c3=O)c(C)c(-c3ccnn3C)n2)CC1 [Example 68, N-[(4,6-dimethyl-2-oxo-1,2-dihydropyridin-3-yl)methyl]-2-(4-methoxypiperi-din-1-yl)-5-methyl-6-(1-methyl-1H-pyrazol-5-yl)pyrimidine-4-carboxamide]
5.19 µM | Cc1cc(C)c(CNC(=O)c2ccnc(N3CCC[C@@H]3C)c2Cl)c(=O)[nH]1 [Example 69, 3-chloro-N-[(4,6-dimethyl-2-oxo-1,2-dihydropyridin-3-yl)methyl]-2-[(2S)-2-methylpyrroli-din-1-yl]isonicotinamide]
5.21 µM | Cc1cc(C)c(CNC(=O)c2cccc(-c3c(C)nn(C)c3C)c2C)c(=O)[nH]1 [Example 70, N-[(4,6-dimethyl-2-oxo-1,2-dihydropyridin-3-yl)methyl]-2-methyl-3-(1,3,5-trimethyl-1H-pyrazol-4-yl)benzamide]
6.33 µM | Cc1cc(C)c(CNC(=O)c2ncnc(N3CCC[C@@H]3C)c2C)c(=O)[nH]1 [Example 71, N-[(4,6-dimethyl-2-oxo-1,2-dihydropyridin-3-yl)methyl]-5-methyl-6-[(2S)-2-methylpyrroli-din-1-yl]pyrimidine-4-carboxamide]
6.37 µM | CSc1nc(C(=O)NCc2c(C)cc(C)[nH]c2=O)c(C)c(-c2ccnn2C)n1 [Example 72, N-[(4,6-dimethyl-2-oxo-1,2-dihydropyridin-3-yl)methyl]-5-methyl-6-(1-methyl-1H-pyrazol-5-yl)-2-(methylthio) pyrimidine-4-carboxamide]
6.5 µM | Cc1cc(C)c(CNC(=O)c2ncnc(N3CCC(C)(C)C3)c2C)c(=O)[nH]1 [Example 73, N-[(4,6-dimethyl-2-oxo-1,2-dihydropyridin-3-yl)methyl]-6-(3,3-dimethylpyrroli-din-1-yl)-5-methylpyrimi-dine-4-carboxamide]
6.61 µM | Cc1cc(C)c(CNC(=O)c2nc(OCc3cncnc3)nc(-c3ccnn3C)c2C)c(=O)[nH]1 [Example 74, N-[(4,6-dimethyl-2-oxo-1,2-dihydropyridin-3-yl)methyl]-5-methyl-6-(1-methyl-1H-pyrazol-5-yl)-2-(pyrimidin-5-ylmethoxy)pyri-midine-4-carboxamide]
6.78 µM | Cc1cc(C)c(CNC(=O)c2ncnc(N3CCOC[C@@H]3C)c2C)c(=O)[nH]1 [Example 75, N-[(4,6-dimethyl-2-oxo-1,2-dihydropyridin-3-yl)methyl]-5-methyl-6-[(3S)-3-methylmorph-olin-4-yl]pyrimidine-4-carboxamide]
6.94 µM | Cc1cc(C)c(CNC(=O)c2cccc(-c3c(C#N)cnn3C)c2C)c(=O)[nH]1 [Example 76, 3-(4-cyano-1-methyl-1H-pyrazol-5-yl)-N-[(4,6-dimethyl-2-oxo-1,2-dihydropyridin-3-yl)methyl]-2-methylbenz-amide]
7.31 µM | Cc1cc(C)c(CNC(=O)c2cc(Cl)cc(-n3cnnc3C)c2C)c(=O)[nH]1 [Example 78, 5-chloro-N-[(4,6-dimethyl-2-oxo-1,2-dihydropyridin-3-yl)methyl]-2-methyl-3-(3-methyl-4H-1,2,4-triazol-4-yl)benzamide]
7.53 µM | Cc1cc(C)c(CNC(=O)c2nc(-c3cncnc3)nc(-c3ccnn3C)c2C)c(=O)[nH]1 [Example 80, N-[(4,6-dimethyl-2-oxo-1,2-dihydropyridin-3-yl)methyl]-5-methyl-6-(1-methyl-1H pyrazol-5-yl)-2,5′-bipyrimidine-4-carboxamide]
